# Results reported in patent US20150191484A1, “NOVEL COMPOUNDS HAVING A TETRACYCLIC IRIDOID SKELTON AND AN ANTI-TRYPANOSOMAL AGENT COMPRISING THE SAME AS AN ACTIVE INGREDIENT” (NATIONAL UNIVERSITY CORPORATION TOKYO MEDICAL AND DENTAL …, priority 2014, published 2015).
# Entries after “also recorded” stand apart in the source; their conditions may differ.
# Assays:
# [1] = MTT cytotoxicity assay, HF-19; type: cell-based, human; details: human, HF-19 normal fibroblast cells; HF-19 normal fibroblast, 48 h, MTT
# Description: (§1) The cytotoxic activity of natural products against mammalian cells is an important point in the search for active compounds with biological activity. […] In order to confirm the selective and potent anti-trypanosomal activity of ML-2-2 and ML-2-3, we examined their cytotoxicity in a panel of human cell lines including two human fibroblastic and 8 human cancer-derived cell lines. Cells were seeded in 96-well microplates and incubated with ML-2-2 and ML-2-3 for 48 h at 37° C. in a 5% CO2 humidified incubator. The viabilities of cells were determined with the MTT (3-(4,5-dimethylthiazol-2-yl)-2-5-diphenyltetrazolium bromide) assay. The selectivity index (SI) was determined using the following equation: IC50 against human cells/IC50 against T. brucei. The IC50 values of ML-2-3 were higher than those of ML-2-2 in all the cell lines examined. […] The SI of ML-2-2 indicates values below 1.00 in most cell lines. On the other hand, SI values of ML-2-3 were much higher than those of ML-2-2 in all tested cell lines.
# [2] = test system: HF-19 (normal fibroblast); experiment: MTT cytotoxicity assay, HF-19; type: cell-based, human
# Description: as §1
# [3] = MTT cytotoxicity assay, Caco2; type: cell-based, human; details: human, Caco2 colon cancer cells; Caco2 colon cancer, 48 h, MTT
# Description: as §1
# Caco2 (colon cancer) = experiment: MTT cytotoxicity assay, Caco2; type: cell-based, human; details: IC50 against Caco2 / IC50 against T. brucei
# Description: as §1
# [4] = MTT cytotoxicity assay, KATOIII; type: cell-based, human; details: human, KATOIII stomach cancer cells; KATOIII stomach cancer, 48 h, MTT
# Description: as §1
# KATOIII (stomach cancer) = experiment: MTT cytotoxicity assay, KATOIII; type: cell-based, human; details: IC50 against KATOIII / IC50 against T. brucei
# Description: as §1
# [5] = MTT cytotoxicity assay, Jurkat; type: cell-based, human; details: human, Jurkat leukemia cells; Jurkat leukemia, 48 h, MTT
# Description: as §1
# Jurkat (leukemia) = experiment: MTT cytotoxicity assay, Jurkat; type: cell-based, human; details: IC50 against Jurkat / IC50 against T. brucei
# Description: as §1
# [6] = MTT cytotoxicity assay, HL-60; type: cell-based, human; details: human, HL-60 leukemia cells; HL-60 leukemia, 48 h, MTT
# Description: as §1
# HL-60 (leukemia) = experiment: MTT cytotoxicity assay, HL-60; type: cell-based, human; details: IC50 against HL-60 / IC50 against T. brucei
# Description: as §1
# Trypanosoma cells [7] = experiment: Multi-caspase apoptosis assay (FACS); type: cell-based, Trypanosoma brucei brucei; details: 5 μM
# Description: (§2) The GUTat 3.1 strain of the bloodstream forms of T. b. brucei parasites was used for this study. Parasites were cultured in vitro according to the conditions established by Yabu et al, 1998.
# (§3) Parasites were used when they reached a confluent concentration of 1×10^6 parasites/ml. Estimation of parasitemia was done with the Neubauer's counting chamber. Parasites were diluted to a concentration of 3×10^5 parasites/ml with HMI-9 medium and used for the various experiments.
# This assay was performed to investigate multi-caspase signals as markers of apoptosis. Seeding and incubation of parasites were as for the other experiments. After 24 hours of incubation, 10% Caspase Reagent Working Solution was added to each well. The plate was incubated for 1 h at 37° C. under 5% CO2 in air. The plate was washed twice with 1× apoptosis wash buffer, centrifuged for 5-7 min and the supernatant aspirated off. Two hundred microlitres (200 μl) working solution of Caspase 7-AAD was added to each well and mixed thoroughly to re-suspend parasites. The plate was incubated for 10 min at room temperature and subjected to FACS analysis using, the Millipore guava easyCyte 5HT FACS machine for the sorting and estimation of apoptotic parasites according to the manufacturer's instructions.
# Trypanosoma cells [8] = experiment: Cell cycle assay (FACS); type: cell-based, Trypanosoma brucei brucei
# Description: as §2, §3
# This assay was performed to investigate any abnormal change in the parasites' cell cycle which may be caused by extracts/compounds with trypanocidal effect. […] The parasites were collected and transferred into 15 ml centrifuge tubes and centrifuged at 1700 rpm for 10 min, after which the supernatant was discarded. The pelleted parasites were re-suspended in 5 ml PBS solution and vortexed to form a suspension. The parasite suspension was centrifuged at 1700 rpm for 10 min and the supernatant discarded. The pelleted parasites were re-suspended in 1.5 ml of PBS and vortexed thoroughly before adding 3.5 ml absolute EtOH gradually to a final volume of 5 ml 70% EtOH. The parasites were then fixed at −20° C. for 1 h. The cell suspension was then centrifuged at 1700 rpm for 10 min and the supernatant discarded. Pelleted parasites were re-suspended in 200 μl of Guava Cell Cycle reagent, which has Propidium Iodide as its main constituent and incubated at room temperature for 30 min. The solution was transferred to wells of 96-well plate. The well contents were then subjected to FACS analysis using the Millipore guava easyCyte 5HT FACS machine, for the sorting of parasites according to the manufacturer's instructions.
# Trypanosoma cells [9] = experiment: Immunohistochemistry / immuno-fluorescence analysis (anti-α tubulin, DAPI); type: cell-based, Trypanosoma brucei brucei; details: 15 μM (four times of IC50)
# Description: as §2, §3
# Immunohistochemistry was performed to detect any morphological or phenotypic changes which may be caused by extracts/compounds with trypanocidal effect. The initial steps of immunohistochemistry are the same as that for the Cell Cycle Assay. After fixing the parasites at −20° C. for an hour, 500 μl of the fixed parasites were transferred to an 8-chamber slide. The parasites were incubated at 4° C. overnight to allow the fixed parasites to adhere to the slide surface. The 70% EtOH was then discarded completely. 500 μl of PBS was added to each chamber and incubated for 5 min, after which PBS was discarded. The parasites were further washed with 500 μl of PBST (0.01% Triton X 100 in PBS) for 5 min and the washing solution discarded. 500 μl of blocking reagent (3% BSA in PBST) was added to the chamber and incubated for 30 min at room temperature, after which the blocking reagent was discarded. Each chamber was filled with 500 μl Anti-α tubulin antibody and incubated for 1 hour. The antibody was then discarded and the parasites were incubated with 500 μl of DAPI (5 μg/ml DAPI in PBS) for 10 min in the dark. The wells were washed twice with 500 μl of PBS and once with 500 μl of PBST. The 8-chamber block was detached from the slide and a few drops of parmafluor mounting reagent were put on the slide. The slide was covered carefully with a cover slip. The covered slide was allowed to dry in the dark and the edge of the cover slip sealed with clear nail varnish. The slide was observed under the Olympus fluorescent microscope.
structure (smiles),measurement,setting,value
"COc1cc(/C=C2/C(=O)O[C@]34C=C[C@@H]5C(C(=O)O)=CO[C@H](O[C@@H]23)[C@@H]54)ccc1O [ML-2-3, (3aS,4aR,4a^1S,7aS,9aS,3E)-3-(4-hydroxy-3-methoxybenzylidene)-2-oxo-2,3,3a,4a,4a^1,7a-hexahydro-1,4,5-trioxadicyclopenta[a,hi]indene-7-carboxylic acid]",IC50 at 48 h,[1],> 50 µM
same,cytotoxicity (in words),"[2]; HF-19, highest assayed dose",non-toxic at the highest assayed doses
same,SI (selectivity index),[2]; IC50 against HF-19 / IC50 against T. brucei,>13.33
same,IC50 at 48 h,[3],44.6 µM
same,SI (selectivity index),Caco2 (colon cancer),11.88
same,IC50 at 48 h,[4],24.8 µM
same,SI (selectivity index),KATOIII (stomach cancer),6.62
same,IC50 at 48 h,[5],12.4 µM
same,SI (selectivity index),Jurkat (leukemia),3.31
same,IC50 at 48 h,[6],25.5 µM
same,SI (selectivity index),HL-60 (leukemia),6.81
same,late-apoptosis cells,Trypanosoma cells [7]; control cells 0.40%,4.2%
same,mid-apoptosis cells,Trypanosoma cells [7]; control cells 1.05%,7%
same,cells with low DNA content (sub-G1 phase),Trypanosoma cells [8]; 15 μM,a large proportion of cells with low DNA content were detected as sub-G1 phase
same,numbers of cells in the G2 and M phase of cell cycle,"Trypanosoma cells [8]; four times of IC50: 15 μM ML-2-3, 5 μM ML-2-2, 24 hours",significant decrease; also recorded: caused alteration of G2/M phase
same,expression of α-tubulin,Trypanosoma cells [9],significantly suppressed
same,flagellum phenotype,Trypanosoma cells [9],no flagellum phenotype
same,nuclear fragmentation,Trypanosoma cells [9],clearly induced the fragmented nuclei
